From patent US9751874B2, “Hydroxy containing FXR (NR1H4) modulating compounds” (Gilead Sciences, Inc., priority 2014, dated 2017)

How the values were obtained:
[1] = molecular target: T1, FXR ligand binding domain (Homo sapiens, UniProt Q96RI1); assay: Mammalian One Hybrid (M1H) assay, Gal4 promoter driven transactivation in HEK293 cells; assay type: cell-based; conditions: Gal4-FXR-LBD luciferase reporter, 16 h
T1 construct: expressed in transfected cells; host or cells: HEK293 cells, transiently transfected with pCMV-BD-FXR-LBD, pFR-Luc and pRL-CMV
T1 sequence (Q96RI1 187-472 isoform Q96RI1-2): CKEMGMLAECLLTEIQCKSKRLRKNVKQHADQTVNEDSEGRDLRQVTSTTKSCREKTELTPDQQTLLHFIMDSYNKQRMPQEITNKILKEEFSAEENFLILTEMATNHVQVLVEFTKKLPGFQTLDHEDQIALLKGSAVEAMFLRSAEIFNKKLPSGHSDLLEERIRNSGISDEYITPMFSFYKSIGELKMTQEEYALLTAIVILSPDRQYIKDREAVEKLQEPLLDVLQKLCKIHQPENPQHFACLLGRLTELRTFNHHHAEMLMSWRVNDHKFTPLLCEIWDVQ
Experimental: Mammalian One Hybrid (M1H) Assay
Determination of a ligand mediated Gal4 promoter driven transactivation to quantify ligand binding mediated activation of FXR was performed as follows: The cDNA part encoding the FXR ligand binding domain was cloned into vector pCMV-BD (Stratagene) as a fusion to the yeast GAL4 DNA binding domain under the control of the CMV promoter. The amino acid boundaries of the ligand binding domain were amino acids 187-472 of Database entry NM_005123 (RefSeq). The plasmid pFR-Luc (Stratagene) was used as the reporter plasmid, containing a synthetic promoter with five tandem repeats of the yeast GAL4 binding sites, driving the expression of the Photinus pyralis (American firefly) luciferase gene as the reporter gene. In order to improve experimental accuracy the plasmid pRL-CMV (Promega) was cotransfected. pRL-CMV contains the constitutive CMV promoter, controlling the expression of the Renilla reniformis luciferase. All Gal4 reporter gene assays were done in HEK293 cells (obtained from DSMZ, Braunschweig, Germany) grown in MEM with L-Glutamine and Earle's BSS supplemented with 10% fetal bovine serum, 0.1 mM nonessential amino acids, 1 mM sodium pyruvate, and 100 units Penicilin/[…] per mL at 37° C. in 5% CO2. Medium and supplements were obtained from Invitrogen. For the assay, […] cells were plated per well in 96 well plates in 100 μL per well MEM without Phenol Red and L-Glutamine and with Earle's BSS supplemented with 10% charcoal/dextran treated FBS (HyClone, South Logan, Utah), 0.1 mM nonessential amino acids, 2 mM glutamine, 1 mM sodium pyruvate, and 100 units Penicilin/[…] per mL, incubated at 37° C. in 5% CO2. The following day the cells were >90% confluence. Medium was removed and cells were transiently transfected using 20 μL per well of a OptiMEM—polyethylene-imine-based transfection-reagent (OptiMEM, Invitrogen; Polyethyleneimine, Aldrich Cat No. 40,827-7) including the three plasmids described above. MEM with the same composition as used for plating cells was added 2-4 h after addition of transfection mixture. Then compound stocks, prediluted in MEM were added (final vehicle concentration not exceeding 0.1%). Cells were incubated for additional 16 h before firefly and renilla luciferase activities were measured sequentially in the same cell extract using a Dual-Light-Luciferase-Assay system (Dyer et al., Anal. Biochem. 2000, 282, 158-161). All experiments were done in triplicates.

[2] = molecular target: T2, human FXR alpha ligand binding domain (Homo sapiens, UniProt Q96RI1); assay: FRET activity assay (ligand mediated cofactor peptide interaction, LANCE); assay type: biochemical; conditions: GST-FXR-LBD / biotinylated SRC-1 peptide (676-700), read-out: F EC50
T2 construct: made in house; host or cells: E. coli BL21(DE3), vector pDEST15
T2 sequence (Q96RI1 187-472 isoform Q96RI1-2): T1 sequence (Q96RI1 187-472 isoform Q96RI1-2)
Experimental: Determination of a ligand mediated cofactor peptide interaction to quantify ligand binding to the nuclear receptor FXR was performed as follows: Preparation of human FXR alpha ligand binding domain: The human FXRalpha LBD was expressed in E. coli strain BL21(DE3) as an N-terminally GST tagged fusion protein. The DNA encoding the FXR ligand binding domain was cloned into vector pDEST15 (Invitrogen). Expression was under control of an IPTG inducible T7 promoter. The amino acid boundaries of the ligand binding domain were amino acids 187-472 of Database entry NM_005123 (RefSeq). Expression and purification of the FXR-LBD: An overnight preculture of a transformed E. coli strain was diluted 1:20 in LB-Ampicillin medium and grown at 30° C. to an optical density of OD600=0.4-0.6. Gene expression was then induced by addition of 0.5 mM IPTG. Cells were incubated an additional 6 h at 30° C., 180 rpm. Cells were collected by centrifugation (7000×g, 7 min, rt). Per liter of original cell culture, cells were resuspended in 10 mL lysis buffer (50 mM Glucose, 50 mM Tris pH 7.9, 1 mM EDTA and 4 mg/mL lysozyme) and left on ice for 30 min. Cells were then subjected to sonication and cell debris removed via centrifugation (22000×g, 30 min, 4° C.). Per 10 mL of supernatant 0.5 mL prewashed Glutathione 4B sepharose slurry (Qiagen) was added and the suspension kept slowly rotating for 1 h at 4° C. Glutathione 4B sepharose beads were pelleted by centrifugation (2000×g, 15 sec, 4° C.) and washed twice in wash buffer (25 mM Tris, 50 mM KCl, 4 mM MgCl2 and 1M NaCl). The pellet was resuspended in 3 mL elution buffer per liter of original culture (elution buffer: 20 mM Tris, 60 mM KCl, 5 mM MgCl2 and 80 mM glutathione added immediately prior to use as powder). The suspension was left rotating for 15 min at 4° C., the beads pelleted and eluted again with half the volume of elution buffer than the first time. The eluates were pooled and dialysed overnight in 20 mM Hepes buffer (pH 7.5) containing 60 mM KCl, 5 mM MgCl2 as well as 1 mM dithiothreitol and 10% (v/v) glycerol. The protein was analysed by SDS-Page.
The method measures the ability of putative ligands to modulate the interaction between the purified bacterial expressed FXR ligand binding domain (LBD) and a synthetic biotinylated peptide based on residues 676-700 of SRC-1 (LCD2, 676-700). The sequence of the peptide used was B—[…]—COOH where the N-terminus was biotinylated (B). The ligand binding domain (LBD) of FXR was expressed as fusion protein with GST in BL-21 cells using the vector pDEST15. Cells were lysed by sonication, and the fusion proteins purified over glutathione sepharose (Pharmacia) according to the manufacturers instructions. For screening of compounds for their influence on the FXR-peptide interaction, the Perkin Elmer LANCE technology was applied. This method relies on the binding dependent energy transfer from a donor to an acceptor fluorophor attached to the binding partner of interest. For ease of handling and reduction of background from compound fluorescence LANCE technology makes use of generic fluorophore labels and time resolved detection Assays were done in a final volume of 25 μL in a 384 well plate, in a Tris-based buffer (20 mM Tris-HCl pH 7.5; 60 mM KCl, 5 mM MgCl2; 35 ng/μL BSA), containing 20-60 ng/well recombinantly expressed FXR-LBD fused to GST, 200-600 nM N-terminally biotinylated peptide, representing SRC1 aminoacids 676-700, 200 ng/well Streptavidin-xIAPC conjugate (Prozyme) and 6-10 ng/well Eu W1024-antiGST (Perkin Elmer). DMSO content of the samples was kept at 1%. After generation of the assay mix and diluting the potentially FXR modulating ligands, the assay was equilibrated for 1 h in the dark at rt in FIA-plates black 384 well (Greiner). The LANCE signal was detected by a Perkin Elmer VICTOR2VTM Multilabel Counter. The results were visualized by plotting the ratio between the emitted light at 665 and 615 nm. […]

| Compound | EC50 [1] | EC50 [2] |
| --- | --- | --- |
| O=C(O)c1cc(F)c2nc([C@]3(O)CC[C@@H](OCc4c(-c5c(Cl)cncc5Cl)noc4C4CC4)CC3)sc2c1 [Example 11-34, 2-((1s,4s)-4-((5-Cyclopropyl-3-(3,5-dichloropyridin-4-yl)isoxazol-4-yl)methoxy)-1-hydroxycyclohexyl)-4-fluorobenzo[d]thiazole-6-carboxylic acid] | 380 nM | 55 nM |
| O=C(O)c1c(F)cc2nc([C@]3(O)CC[C@@H](OCc4c(-c5c(Cl)cccc5Cl)noc4C4CC4)CC3)sc2c1F [Example 14-2, 2-((1s,4s)-4-((5-Cyclopropyl-3-(2,6-dichlorophenyl)isoxazol-4-yl)methoxy)-1-hydroxycyclohexyl)-5,7-difluorobenzo[d]thiazole-6-carboxylic acid] | 2700 nM | 32 nM |
| O=C(O)c1ccc2nc([C@]3(O)CC[C@@H](OCc4c(-c5c(Cl)cccc5Cl)noc4C4CC4)CC3)sc2c1 [Example 11-30, 2-((1s,4s)-4-((5-Cyclopropyl-3-(2,6-dichlorophenyl)isoxazol-4-yl)methoxy)-1-hydroxycyclohexyl)benzo[d]thiazole-6-carboxylic acid] | 67 nM | 64 nM |
| O=C(O)c1cc(F)c2nc([C@]3(O)CC4CC3CC4OCc3c(-c4c(Cl)cccc4Cl)noc3C3CC3)sc2c1 (single isomer, unassigned) [Example 11-48] | 190 nM | 46 nM |
| OCc1ccc([C@]2(O)CC[C@@H](OCc3c(-c4c(Cl)cccc4Cl)noc3C3CC3)CC2)c(F)c1 [Example 9-6, (1s,4s)-4-((5-Cyclopropyl-3-(2,6-dichlorophenyl)isoxazol-4-yl)methoxy)-1-(2-fluoro-4-(hydroxymethyl)phenyl)cyclohexanol] | 320 nM | 220 nM |
| Cc1onc(-c2c(Cl)cccc2Cl)c1CO[C@H]1C[C@H]2CC[C@@H](C1)[C@]2(O)c1nc2ccc(C(=O)O)cc2s1 [Example 11-38, 2-((1R,3r,5S,8r)-3-((3-(2,6-Dichlorophenyl)-5-methylisoxazol-4-yl)methoxy)-8-hydroxybicyclo[3.2.1]octan-8-yl)benzo[d]thiazole-6-carboxylic acid] | 460 nM | 270 nM |
| O=C(O)c1ccc2nc([C@]3(O)CC[C@@H](OCc4c(-c5ccccc5C(F)F)noc4C4CC4)CC3)sc2c1 [Example 11-15, 2-((1s,4s)-4-((5-Cyclopropyl-3-(2-(difluoromethyl)phenyl)isoxazol-4-yl)methoxy)-1-hydroxycyclohexyl)benzo[d]thiazole-6-carboxylic acid] | 2200 nM | 1500 nM |
| O=C(O)c1cccc2nc([C@]3(O)CC[C@@H](OCc4c(-c5c(Cl)cccc5Cl)noc4C4CC4)CC3)ccc12 [Example 11-44, 2-((1s,4s)-4-((5-Cyclopropyl-3-(2,6-dichlorophenyl)isoxazol-4-yl)methoxy)-1-hydroxycyclohexyl)quinoline-5-carboxylic acid] | 120 nM | 49 nM |
| NC(=O)c1cc(F)c2nc([C@]3(O)CC[C@@H](OCc4c(-c5c(Cl)cncc5Cl)noc4C4CC4)CC3)sc2c1 [Example 18, 2-((1s,4s)-4-((5-Cyclopropyl-3-(3,5-dichloropyridin-4-yl)isoxazol-4-yl)methoxy)-1-hydroxycyclohexyl)-4-fluorobenzo[d]thiazole-6-carboxamide] | 440 nM | 98 nM |
| O=C(O)c1ccc2nc([C@]3(O)CC[C@@H](OCc4c(-c5ccccc5OC(F)F)noc4C4CC4)CC3)sc2c1 [Example 11-10, 2-((1s,4s)-4-((5-Cyclopropyl-3-(2-(difluoromethoxy)phenyl)isoxazol-4-yl)methoxy)-1-hydroxycyclohexyl)benzo[d]thiazole-6-carboxylic acid] | 1200 nM | 250 nM |
| N#Cc1ccc2nc([C@]3(O)[C@@H]4CC[C@H]3C[C@H](OCc3c(-c5c(Cl)cccc5Cl)noc3C3CC3)C4)sc2c1 [Example 8-5, 2-((1R,3s,5S,8r)-3-((5-Cyclopropyl-3-(2,6-dichlorophenyl)isoxazol-4-yl)methoxy)-8-hydroxybicyclo[3.2.1]octan-8-yl)benzo[d]thiazole-6-carbonitrile] | 58 nM | 31 nM |
| O=C(O)c1ccc2nc([C@]3(O)CC[C@@H](OCc4c(-c5c(C(F)F)cccc5C(F)F)noc4C4CC4)CC3)sc2c1 [Example 11-18, 2-((1s,4s)-4-((3-(2,6-Bis(difluoromethyl)phenyl)-5-cyclopropylisoxazol-4-yl)methoxy)-1-hydroxycyclohexyl)benzo[d]thiazole-6-carboxylic acid] | 170 nM | 350 nM |
| Cn1cc(C(=O)O)c2ccc([C@]3(O)CC[C@@H](OCc4c(-c5c(Cl)cccc5Cl)noc4C4CC4)CC3)cc21 [Example 11-42, 6-((1s,4s)-4-((5-Cyclopropyl-3-(2,6-dichlorophenyl)isoxazol-4-yl)methoxy)-1-hydroxycyclohexyl)-1-methyl-1H-indole-3-carboxylic acid] | 36 nM | 20 nM |
